Test results from PubChem BioAssay (NCI).
Values joined by “and” are separate entries in the source; they are usually repeats but may differ in a detail not shown here. Identical values can stand only once.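 Method: 48-hour compound exposure of cells in 96-well plates, five concentrations, linear interpolation of endpoints. GI50: concentration for 50% inhibition of growth. TGI marks complete inhibition of growth.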

Columns and labels:
Assay in all cases: inhibition of tumour cell growth, NCI panel, 48 h
NCI-H226 lung = test system: NCI-H226 lung
HT29 colon = test system: HT29 colon
SK-OV-3 ovarian = test system: SK-OV-3 ovarian
LOX IMVI melanoma = test system: LOX IMVI melanoma
RPMI-8226 leukemia = test system: RPMI-8226 leukemia
HS 578T breast = test system: HS 578T breast
KM12 colon = test system: KM12 colon
OVCAR-3 ovarian = test system: OVCAR-3 ovarian
HOP-62 NSCLC = test system: HOP-62 NSCLC
HCT-116 colon = test system: HCT-116 colon

Molecule	GI50 (NCI-H226 lung)	TGI (NCI-H226 lung)	GI50 (HT29 colon)	TGI (HT29 colon)	GI50 (SK-OV-3 ovarian)	TGI (SK-OV-3 ovarian)	GI50 (LOX IMVI melanoma)	TGI (LOX IMVI melanoma)	GI50 (RPMI-8226 leukemia)	TGI (RPMI-8226 leukemia)	GI50 (HS 578T breast)	TGI (HS 578T breast)	GI50 (KM12 colon)	TGI (KM12 colon)	GI50 (OVCAR-3 ovarian)	TGI (OVCAR-3 ovarian)	GI50 (HOP-62 NSCLC)	TGI (HOP-62 NSCLC)	GI50 (HCT-116 colon)	TGI (HCT-116 colon)
CN1CCN(c2ccc3nc(-c4ccc(OCCCCN5CCN(CCCCN6C(=O)c7cccc8cccc(c78)C6=O)CC5)cc4)[nH]c3c2)CC1	37.6 µM	> 100 µM	86.4 µM	> 100 µM	> 100 µM	> 100 µM	37.3 µM	> 100 µM	33.9 µM	> 100 µM	3.39 µM	> 100 µM	43.8 µM	> 100 µM	36.6 µM	> 100 µM	> 100 µM	> 100 µM	> 100 µM	> 100 µM
NC(=O)c1ccc(N(C(N)=O)c2c(F)cccc2F)nc1-c1ccc(F)cc1F	> 100 µM	> 100 µM	> 100 µM	> 100 µM	> 100 µM	> 100 µM	> 100 µM	> 100 µM	> 100 µM	> 100 µM	> 100 µM	> 100 µM	> 100 µM	> 100 µM	> 100 µM	> 100 µM	> 100 µM	> 100 µM	> 100 µM	> 100 µM
Cc1ccc(S(=O)(=O)NC(CO)C(=O)O)cc1 (stereo not given)		> 100 µM		> 100 µM		> 100 µM		> 100 µM		> 100 µM		> 100 µM		> 100 µM		> 100 µM		> 100 µM		> 100 µM
H-QIYKKYRTWYRKAWKVLGKV-NH2	12.4 µM	58.7 µM	20.8 µM	> 100 µM	11.3 µM	30.5 µM	23.7 µM	> 100 µM	6.85 µM	77.7 µM	2.57 µM	8.51 µM	2.97 µM	9.37 µM	4.3 µM	22.3 µM	5.15 µM	> 100 µM	10.8 µM	77.1 µM
COc1cccc(NC2=C(Cl)C(=O)N(Cc3ccc(Cl)cc3)C2=O)c1	1.27 µM	6.86 µM	2.72 µM	> 100 µM	8.09 µM	60.6 µM	1.45 µM	> 35.3 µM	0.985 µM	> 20.3 µM	3.21 µM	13.3 µM	2.34 µM	30.5 µM	1.62 µM	7.89 µM	2.4 µM	12.3 µM	1.59 µM	13.5 µM
CC(N1CCOCC1)C(O)(c1ccccc1)c1ccccn1 (stereo not given)		> 100 µM		> 100 µM		> 100 µM		> 100 µM		> 100 µM		> 100 µM		> 100 µM		> 100 µM		> 100 µM		> 100 µM
CC(/C=N/N=C(N)N)=N\N=C(N)N		459 µM	18.6 µM and 17.1 µM	> 58 µM and 1620 µM		546 µM	29.9 µM	202 µM	> 42.8 µM	454 µM		169 µM	21.5 µM	34.4 µM	11.1 µM	130 µM	14.8 µM	46.9 µM	52.1 µM	1370 µM
O=C(CCCCCCCCC(=O)N/N=C\c1cc(Cl)ccc1O)N/N=C\c1cc(Cl)ccc1O	0.5 µM	> 36.2 µM	> 25.5 µM	> 100 µM	0.685 µM	79.9 µM	0.149 µM	7.41 µM	0.847 µM	> 100 µM	16.4 µM	> 100 µM	0.594 µM	> 100 µM	0.311 µM	> 100 µM	0.284 µM	> 100 µM	0.308 µM	> 100 µM
C=CC(C)(O)CC/C=C(\CO)C(=O)OC1C(C)OC(O[C@](C)(C=C)CC/C=C(\CO)C(=O)O[C@H]2C[C@@]3(C(=O)OC4OC(CO)C(O)C(O)C4OC4OC(C)C(OC5OC(CO)C(O)C5O)C(OC5OC(CO)C(O)C(O)C5O)C4O)C(CC2(C)C)C2=CCC4[C@@]5(C)CC[C@H](OC6OC(COC7OC(C)C(O)C(O)C7OC7OCC(O)C(O)C7O)C(O)C(O)C6NC(C)=O)C(C)(C)C5CC[C@@]4(C)[C@]2(C)C[C@H]3O)C(O)C1O (stereo not given in full)	0.363 µM	1.98 µM	1.42 µM	6.06 µM	0.203 µM	0.794 µM	0.162 µM	0.82 µM	5 µM	18 µM	0.989 µM	7.16 µM	0.285 µM	1.98 µM	0.0947 µM	0.344 µM	0.275 µM	1.58 µM	0.143 µM	6.93 µM
COc1cc(/C=N/NC(=O)c2ccccc2Nc2cccc(C(F)(F)F)c2)cc(OC)c1OC	7.45 µM	25.2 µM	1.67 µM	10.8 µM	2.92 µM	8.44 µM	4.55 µM	15.4 µM	0.754 µM	> 22.7 µM	0.971 µM	6.6 µM	1.29 µM	4.17 µM	0.797 µM	2.33 µM	3.23 µM	11 µM	2.48 µM	6.4 µM
O=Cc1ccc(N2CCN(c3ccc(C=O)cc3)CC2)cc1	1.65 µM	4.12 µM	> 100 µM	> 100 µM	> 100 µM	> 100 µM	> 100 µM	> 100 µM	> 100 µM	> 100 µM	> 100 µM	> 100 µM	> 100 µM	> 100 µM	> 100 µM	> 100 µM	> 100 µM	> 100 µM	71.5 µM	> 100 µM
O=C(/C=C/c1ccc([N+](=O)[O-])cc1)c1cccc(Nc2nc(Nc3ccccc3)nc(Nc3ccccc3)n2)c1	14.4 µM	44.9 µM	7.79 µM	> 100 µM	73.8 µM	> 100 µM	11.1 µM	44.6 µM	1.66 µM	6.31 µM	1.35 µM	5.97 µM	5.04 µM	29.5 µM	11.3 µM	63.4 µM	32.2 µM	> 100 µM		
O=C(O)CCc1nc(-c2ccccc2-n2cccc2)no1		> 100 µM		> 100 µM		> 100 µM		> 100 µM		> 100 µM		> 100 µM		> 100 µM		86.3 µM		> 100 µM		> 100 µM
